Test results: ChEMBL document CHEMBL4828750, “Structure-activity relationships of agonists for the orphan G protein-coupled receptor GPR27” (Eur J Med Chem, 2021)

The molecules below were run on HEK293 (assay: Cytotoxicity against human HEK293 cells expressing FnLArrb2.GPR27V2LFc up to 33.3 uM incubated for 10 mins by MTT assay). Conditions: hek293, 10 min.
Assay type: cell-based

Structure (SMILES) | Activity
O=C(Nc1ccc(S(=O)(=O)Nc2ccccc2)cc1)c1ccc(C(F)(F)F)cc1F | Non-Toxic
O=C(Nc1ccc(S(=O)(=O)Nc2ccccc2)cc1)c1ccc(Cl)cc1Cl | Non-Toxic
Cc1cc(Br)ccc1C(=O)Nc1ccc(S(=O)(=O)Nc2ccccc2)cc1 | Non-Toxic
Cc1cc(Cl)ccc1C(=O)Nc1ccc(S(=O)(=O)Nc2ccccc2)cc1 | Non-Toxic

What follows are molecules tested against T1, Probable G-protein coupled receptor 27 (Homo sapiens, UniProt Q9NS67) (assay: Agonist activity at human GPR27 expressed in HEK293 cells co-expressing FnLArrb2.GPR27V2LFc assessed as induction of beta-arrestin recruitment incubated for 10 mins measured followed by addition of D-luciferin by firefly-luciferase complementation assay). Conditions: not given.
Assay type: functional, cell-based

T1 sequence (Q9NS67 whole entry): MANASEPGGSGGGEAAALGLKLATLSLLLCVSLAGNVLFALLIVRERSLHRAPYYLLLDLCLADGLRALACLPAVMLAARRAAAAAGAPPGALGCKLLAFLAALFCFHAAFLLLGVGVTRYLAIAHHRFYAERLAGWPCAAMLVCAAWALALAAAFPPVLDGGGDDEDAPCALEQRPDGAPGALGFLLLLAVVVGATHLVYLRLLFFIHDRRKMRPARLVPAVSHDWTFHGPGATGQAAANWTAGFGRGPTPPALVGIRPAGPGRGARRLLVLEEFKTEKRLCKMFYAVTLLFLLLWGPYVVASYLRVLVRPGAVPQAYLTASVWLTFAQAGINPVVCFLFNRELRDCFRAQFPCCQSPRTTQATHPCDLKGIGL

Structure (SMILES) | EC50 [µM]
O=C(Nc1ccc(S(=O)(=O)Nc2ccccc2)cc1)c1cc(F)c(Cl)cc1F | 0.141
O=C(Nc1ccc(S(=O)(=O)Nc2ccccc2)cc1)c1ccc(Cl)cc1Br | 1.02
O=C(Nc1ccc(S(=O)(=O)Nc2ccccc2)cc1)c1ccc(C(F)(F)F)cc1F | 0.363
CN(c1ccccc1)S(=O)(=O)c1ccc(NC(=O)c2ccc(Cl)cc2Cl)cc1 | 2.57
O=C(Cc1ccc(Cl)cc1Cl)Nc1ccc(S(=O)(=O)Nc2ccccc2)cc1 | > 100
O=C(Nc1ccc(Cl)cc1Cl)c1ccc(S(=O)(=O)Nc2ccccc2)cc1 | > 100
O=C(Nc1ccc(S(=O)(=O)Nc2ccccc2)cc1)c1ccc(Cl)cc1Cl | 0.457
O=C(Nc1ccc(S(=O)(=O)Nc2ccc(Cl)cc2)cc1)c1ccc(Cl)cc1Cl | > 100
O=C(Nc1cccc(S(=O)(=O)Nc2ccccc2)c1)c1ccc(Cl)cc1Cl | > 100
COc1cc(Br)ccc1C(=O)Nc1ccc(S(=O)(=O)Nc2ccccc2)cc1 | 1.02
O=C(NS(=O)(=O)c1ccc(NC(=O)c2ccc(Cl)cc2Cl)cc1)c1ccccc1 | > 100
Cc1cc(Br)ccc1C(=O)Nc1ccc(S(=O)(=O)Nc2ccccc2)cc1 | 0.851
Cc1ccc(NS(=O)(=O)c2ccc(NC(=O)c3ccc(Cl)cc3Cl)cc2)cc1 | > 100
Cc1cc(Cl)ccc1C(=O)Nc1ccc(S(=O)(=O)Nc2ccccc2)cc1 | 0.912
O=C(Nc1ccc(S(=O)(=O)Nc2ccccc2)cc1)c1ccc(Cl)nc1F | 2.29
O=C(Nc1ccc(S(=O)(=O)Nc2ccccc2)cc1)c1ccc(Br)cc1F | 0.479
O=C(Nc1ccc(S(=O)(=O)Nc2ccccc2Cl)cc1)c1ccc(Cl)cc1Cl | 1.26

Further lines, results first:

EC50 [µM] | Structure (SMILES)
7.76 | O=C(Nc1ccc(S(=O)(=O)Nc2ccccc2)cc1)c1cc2ccccc2oc1=O
> 100 | O=S(=O)(Nc1ccccc1)c1ccc(NS(=O)(=O)c2ccc(Cl)cc2Cl)cc1
> 100 | O=C(Nc1ccc(S(=O)(=O)Nc2ncccn2)cc1)c1ccc(Cl)cc1Cl
8.51 | O=C(Nc1ccc(S(=O)(=O)Nc2ccccc2)cc1)c1ccc2ccccc2c1
> 100 | O=C(Nc1ccc(S(=O)(=O)NCc2ccccc2)cc1)c1ccc(Cl)cc1Cl
> 100 | COc1ccc(NS(=O)(=O)c2ccc(NC(=O)c3ccc(Cl)cc3Cl)cc2)cc1
1.23 | Cc1ccccc1NS(=O)(=O)c1ccc(NC(=O)c2ccc(Cl)cc2Cl)cc1
0.575 | O=C(Nc1ccc(S(=O)(=O)Nc2cccc(Cl)c2)cc1)c1ccc(Cl)cc1Cl
5.75 | O=C(Nc1ccc(S(=O)(=O)Nc2ccccc2)cc1)c1ncc(Cl)cc1Cl
3.98 | O=C(Nc1ccc(S(=O)(=O)Nc2ccccc2)cc1)c1ccc(Cl)cc1F
0.229 | N#Cc1ccc(C(=O)Nc2ccc(S(=O)(=O)Nc3ccccc3)cc2)c(F)c1
3.02 | O=C(Nc1ccc(S(=O)(=O)Nc2ccccn2)cc1)c1ccc(Cl)cc1Cl
> 10 | O=C(Nc1ccccc1)c1ccc(NC(=O)c2ccc(Cl)cc2Cl)cc1
5.13 | O=C(Nc1ccc(S(=O)(=O)Nc2ccccc2)cc1)c1ccc(I)cc1F

Each molecule was assayed against T1, Probable G-protein coupled receptor 27 (assay: Agonist activity at human GPR27 expressed in HEK293 cells assessed as induction of beta-arrestin recruitment pretreated with substrate for 45 mins followed by compound addition and measured for 40 mins by NanoLuc luciferase complementation assay). Conditions: not given.
Assay type: functional, cell-based

EC50 [µM] | Structure (SMILES)
0.912 | O=C(Nc1ccc(S(=O)(=O)Nc2ccccc2)cc1)c1ccc(Cl)cc1Cl
1.3 | O=C(Nc1ccc(S(=O)(=O)Nc2nccs2)cc1)c1ccc(Cl)cc1Cl
